Test system: MV-4-11 cells
Assay: Gene expression microarray analysis (Affymetrix PrimeView) and GSEA
Assay type: cell-based, human
Set-up: RFU PODN (11730768_x_at) / Fold change /veh PODN (11730768_x_at) / RFU LINC00158 (11744669_a_at) / Fold change /veh LINC00158 (11744669_a_at) / RFU DUSP10 (11751237_a_at) / Fold change /veh DUSP10 (11751237_a_at) / RFU ID3 (11757404_x_at) / Fold change /veh ID3 (11757404_x_at) / RFU PLEKHG5 (11737974_s_at) / Fold change /veh PLEKHG5 (11737974_s_at) / RFU LRRC4B (11730491_at) / Fold change /veh LRRC4B (11730491_at) / RFU GIMAP4 (11747438_a_at) / Fold change /veh GIMAP4 (11747438_a_at) / RFU KRT8 (11758183_x_at) / Fold change /veh KRT8 (11758183_x_at) / RFU CNN1 (11734310_a_at) / Fold change /veh CNN1 (11734310_a_at) / RFU VPS37D (11726825_at) / Fold change /veh VPS37D (11726825_at) / RFU C10orf10 (11716522_x_at) / Fold change /veh C10orf10 (11716522_x_at) / RFU KIR2DL2 /// KIR2DL4 /// KIR2DL5A /// KIR2DL5B /// KIR2DS1 /// KIR2DS2 /// KIR2DS3 /// KIR2DS4 /// KIR3DL3 /// KIR3DL3 /// KIR3DS1 (11738374_at) / Fold change /veh KIR2DL2 /// KIR2DL4 /// KIR2DL5A /// KIR2DL5B /// KIR2DS1 /// KIR2DS2 /// KIR2DS3 /// KIR2DS4 /// KIR3DL3 /// KIR3DL3 /// KIR3DS1 (11738374_at) / RFU C1QL1 (11718748_at) / Fold change /veh C1QL1 (11718748_at) / RFU TMPRSS4 (11747572_a_at) / Fold change /veh TMPRSS4 (11747572_a_at) / RFU HAMP (11756126_x_at) / Fold change /veh HAMP (11756126_x_at) / RFU RNFT2 (11725882_a_at) / Fold change /veh RNFT2 (11725882_a_at) / RFU NR4A2 (11747474_a_at) / Fold change /veh NR4A2 (11747474_a_at) / RFU ABCC12 (11746883_a_at) / Fold change /veh ABCC12 (11746883_a_at) / RFU TMEM136 (11760407_x_at) / Fold change /veh TMEM136 (11760407_x_at) / RFU CLDN22 /// WWC2 (11732394_at) / Fold change /veh CLDN22 /// WWC2 (11732394_at) / RFU HLA-DPB1 (11760878_x_at) / Fold change /veh HLA-DPB1 (11760878_x_at) / RFU SPINT1 (11716480_a_at) / Fold change /veh SPINT1 (11716480_a_at) / RFU GAP43 (11754022_s_at) / Fold change /veh GAP43 (11754022_s_at) / RFU A4GNT (11735810_at) / Fold change /veh A4GNT (11735810_at) / RFU PRB3 (11715151_x_at) / Fold change /veh PRB3 (11715151_x_at) / RFU TUBB4B (11761932_at) / Fold change /veh TUBB4B (11761932_at) / RFU CAPN14 (11732068_a_at) / Fold change /veh CAPN14 (11732068_a_at) / RFU TMCC2 (11721928_a_at) / Fold change /veh TMCC2 (11721928_a_at) / RFU IRGQ (11745062_a_at) / Fold change /veh IRGQ (11745062_a_at) / RFU FAM174B (11720279_a_at) / Fold change /veh FAM174B (11720279_a_at) / RFU TMPRSS4 (11748680_a_at) / Fold change /veh TMPRSS4 (11748680_a_at) / RFU FAM212B (11763350_a_at) / Fold change /veh FAM212B (11763350_a_at) / RFU PLEKHG5 (11743358_a_at) / Fold change /veh PLEKHG5 (11743358_a_at) / RFU ZSCAN30 (11745921_a_at) / Fold change /veh ZSCAN30 (11745921_a_at) / RFU CMKLR1 (11741424_a_at) / Fold change /veh CMKLR1 (11741424_a_at) / RFU LOC101060620 /// MAPK8IP1 (11723275_at) / Fold change /veh LOC101060620 /// MAPK8IP1 (11723275_at) / RFU SPTSSB (11747773_x_at) / Fold change /veh SPTSSB (11747773_x_at) / RFU PRSS12 (11739890_at) / Fold change /veh PRSS12 (11739890_at) / RFU BIN1 (11741810_x_at) / Fold change /veh BIN1 (11741810_x_at) / RFU WNT11 (11732464_a_at) / Fold change /veh WNT11 (11732464_a_at) / RFU C10orf10 (11716521_a_at) / Fold change /veh C10orf10 (11716521_a_at) / RFU C5orf56 (11738089_at) / Fold change /veh C5orf56 (11738089_at) / RFU CYB561 (11721691_x_at) / Fold change /veh CYB561 (11721691_x_at) / RFU ANKRD19P (11752326_a_at) / Fold change /veh ANKRD19P (11752326_a_at) / RFU OR2T12 /// OR2T33 /// OR2T8 (11738714_s_at) / Fold change /veh OR2T12 /// OR2T33 /// OR2T8 (11738714_s_at) / RFU VCAN (11748164_a_at) / Fold change /veh VCAN (11748164_a_at) / RFU JSRP1 (11732532_at) / Fold change /veh JSRP1 (11732532_at) / RFU KRTAP10-11 (11738290_x_at) / Fold change /veh KRTAP10-11 (11738290_x_at) / RFU MYO3A (11730013_a_at) / Fold change /veh MYO3A (11730013_a_at) / RFU EBF3 (11725865_a_at) / Fold change /veh EBF3 (11725865_a_at) / RFU CAMK2N1 (11719241_x_at) / Fold change /veh CAMK2N1 (11719241_x_at) / RFU C5orf56 (11738088_a_at) / Fold change /veh C5orf56 (11738088_a_at) / RFU OLFML3 (11715873_a_at) / Fold change /veh OLFML3 (11715873_a_at) / RFU LOC100653217 /// NTM (11731650_a_at) / Fold change /veh LOC100653217 /// NTM (11731650_a_at) / RFU MAPK11 (11762145_a_at) / Fold change /veh MAPK11 (11762145_a_at) / RFU FIZ1 (11724087_x_at) / Fold change /veh FIZ1 (11724087_x_at) / RFU OASL (11726364_x_at) / Fold change /veh OASL (11726364_x_at) / RFU SOX15 (11748057_x_at) / Fold change /veh SOX15 (11748057_x_at) / RFU CD79A (11719716_a_at) / Fold change /veh CD79A (11719716_a_at) / RFU HIST1H1D (11736915_at) / Fold change /veh HIST1H1D (11736915_at) / RFU CASKIN2 (11723855_a_at) / Fold change /veh CASKIN2 (11723855_a_at) / RFU LOC730098 (11760151_x_at) / Fold change /veh LOC730098 (11760151_x_at) / RFU OR4N2 (11742367_at) / Fold change /veh OR4N2 (11742367_at) / RFU PRRT2 (11749266_a_at) / Fold change /veh PRRT2 (11749266_a_at) / RFU SNX32 (11753110_a_at) / Fold change /veh SNX32 (11753110_a_at) / RFU CDHR5 (11726645_a_at) / Fold change /veh CDHR5 (11726645_a_at) / RFU RCAN1 (11760418_a_at) / Fold change /veh RCAN1 (11760418_a_at) / RFU FAM167A (11723789_a_at) / Fold change /veh FAM167A (11723789_a_at) / RFU FAM26E (11764081_at) / Fold change /veh FAM26E (11764081_at) / RFU ISYNA1 (11749810_s_at) / Fold change /veh ISYNA1 (11749810_s_at) / RFU ACY1 (11761880_at) / Fold change /veh ACY1 (11761880_at) / RFU 11764098_at / Fold change /veh 11764098_at / RFU SAMD14 (11745864_x_at) / Fold change /veh SAMD14 (11745864_x_at) / RFU NPB (11741838_a_at) / Fold change /veh NPB (11741838_a_at) / RFU TMPRSS6 (11731388_a_at) / Fold change /veh TMPRSS6 (11731388_a_at) / RFU KRTAP10-2 (11738614_at) / Fold change /veh KRTAP10-2 (11738614_at) / RFU ARHGAP8 /// PRR5-ARHGAP8 (11727945_x_at) / Fold change /veh ARHGAP8 /// PRR5-ARHGAP8 (11727945_x_at) / RFU KRTAP5-7 /// NADSYN1 (11734609_at) / Fold change /veh KRTAP5-7 /// NADSYN1 (11734609_at) / RFU RASL12 (11751679_a_at) / Fold change /veh RASL12 (11751679_a_at) / RFU CDKN2B (11736163_a_at) / Fold change /veh CDKN2B (11736163_a_at) / RFU PRF1 (11729649_at) / Fold change /veh PRF1 (11729649_at) / RFU, ZNF638 /// ZNF638-IT1 / Fold change vs veh, ZNF638 /// ZNF638-IT1 / RFU, PANK3 / Fold change vs veh, PANK3 / RFU, SH3YL1 / Fold change vs veh, SH3YL1 / RFU, ZEB2 / Fold change vs veh, ZEB2 / RFU, NRIP1 / Fold change vs veh, NRIP1 / RFU, PTTG1IP / Fold change vs veh, PTTG1IP / RFU, CAPN2 / Fold change vs veh, CAPN2 / RFU, MED14 / Fold change vs veh, MED14 / RFU, SNORA58 / Fold change vs veh, SNORA58 / RFU, C1orf63 / Fold change vs veh, C1orf63 / RFU, LRRFIP1 / Fold change vs veh, LRRFIP1 / RFU, NDUFAF7 / Fold change vs veh, NDUFAF7 / RFU, SLC12A2 / Fold change vs veh, SLC12A2 / RFU, IBTK / Fold change vs veh, IBTK / RFU, ESF1 / Fold change vs veh, ESF1 / Fold change vs veh, TMEM50B / RFU, TAOK1 / Fold change vs veh, TAOK1 / RFU, ACBD3 / Fold change vs veh, ACBD3 / RFU, TMA16 / Fold change vs veh, TMA16 / RFU, RWDD3 / Fold change vs veh, RWDD3 / RFU, BCAT1 / Fold change vs veh, BCAT1 / RFU, EDEM3 / Fold change vs veh, EDEM3 / RFU, TMEM33 / Fold change vs veh, TMEM33 / RFU, WDR75 / Fold change vs veh, WDR75 / RFU, AHCTF1 / Fold change vs veh, AHCTF1 / RFU, TFRC / Fold change vs veh, TFRC / RFU, ZDHHC17 / Fold change vs veh, ZDHHC17 / RFU, NOM1 / Fold change vs veh, NOM1 / RFU, ARL8B / Fold change vs veh, ARL8B / RFU, ZBTB11 / Fold change vs veh, ZBTB11 / RFU, TAMM41 / Fold change vs veh, TAMM41 / RFU, KIAA1704 /// LOC100996395 / Fold change vs veh, KIAA1704 /// LOC100996395 / RFU, ING1 / Fold change vs veh, ING1 / RFU, TRMT61B / Fold change vs veh, TRMT61B / RFU, FUBP3 / Fold change vs veh, FUBP3 / RFU, TP53 / Fold change vs veh, TP53 / RFU, TNKS2 / Fold change vs veh, TNKS2 / RFU, ZFP14 / Fold change vs veh, ZFP14 / RFU, ACTR2 / Fold change vs veh, ACTR2 / RFU, PPP3R1 / Fold change vs veh, PPP3R1 / RFU, PIK3R1 / Fold change vs veh, PIK3R1 / RFU, HNRNPA1 / Fold change vs veh, HNRNPA1 / RFU, RNF170 / Fold change vs veh, RNF170 / RFU, ZNF28 / Fold change vs veh, ZNF28 / RFU, RNGTT / Fold change vs veh, RNGTT / RFU, OGT / Fold change vs veh, OGT / RFU, BRD1 / Fold change vs veh, BRD1 / RFU, MARS / Fold change vs veh, MARS / RFU, ZNF655 / Fold change vs veh, ZNF655 / RFU, FAHD1 / Fold change vs veh, FAHD1 / RFU, BDP1 / Fold change vs veh, BDP1 / RFU, LRRCC1 / Fold change vs veh, LRRCC1 / RFU, ARID1A / Fold change vs veh, ARID1A / RFU, ZNF146 / Fold change vs veh, ZNF146 / RFU, ZNF330 / Fold change vs veh, ZNF330 / RFU, GPN3 / Fold change vs veh, GPN3 / RFU, C9orf123 / Fold change vs veh, C9orf123 / RFU, N4BP2L2 / Fold change vs veh, N4BP2L2 / RFU, ARFIP1 / Fold change vs veh, ARFIP1 / RFU, FAM179B / Fold change vs veh, FAM179B / RFU, BCL10 / Fold change vs veh, BCL10 / RFU, UHRF1BP1L / Fold change vs veh, UHRF1BP1L / RFU, BET1 / Fold change vs veh, BET1 / RFU, CNOT2 / Fold change vs veh, CNOT2 / RFU, ZNF268 / Fold change vs veh, ZNF268 / Fold change vs veh, ZNF507 / RFU, DGCR2 / Fold change vs veh, DGCR2 / RFU, WDSUB1 / Fold change vs veh, WDSUB1 / Fold change vs veh, HSP90B1 /// MIR3652 / RFU, ADSS / Fold change vs veh, ADSS / RFU, GK / Fold change vs veh, GK / RFU, ZNF148 / Fold change vs veh, ZNF148 / RFU, TAF9 / Fold change vs veh, TAF9 / RFU, SLC1A5 / Fold change vs veh, SLC1A5 / RFU, SLMO2 / Fold change vs veh, SLMO2 / RFU, ABCC4 / Fold change vs veh, ABCC4 / RFU, LOC101060439 /// RAP1B / Fold change vs veh, LOC101060439 /// RAP1B / RFU, RFX7 / Fold change vs veh, RFX7 / RFU, GTPBP10 / Fold change vs veh, GTPBP10 / RFU, CNEP1R1 / Fold change vs veh, CNEP1R1 / RFU, BIVM-ERCC5 /// ERCC5 / Fold change vs veh, BIVM-ERCC5 /// ERCC5 / RFU, ILF3 / Fold change vs veh, ILF3 / RFU 11762660_at / Fold change /veh 11762660_at / RFU VCAN (11757783_s_at) / Fold change /veh VCAN (11757783_s_at) / RFU DDX43 (11728927_at) / Fold change /veh DDX43 (11728927_at) / RFU KRT8 (11758188_x_at) / Fold change /veh KRT8 (11758188_x_at) / RFU NKD1 (11759106_at) / Fold change /veh NKD1 (11759106_at) / RFU SRD5A1 (11742802_a_at) / Fold change /veh SRD5A1 (11742802_a_at) / RFU TPSAB1 /// TPSB2 (11721975_s_at) / Fold change /veh TPSAB1 /// TPSB2 (11721975_s_at) / RFU GSTM3 (11746129_a_at) / Fold change /veh GSTM3 (11746129_a_at) / RFU IL23R (11737362_x_at) / Fold change /veh IL23R (11737362_x_at) / RFU TMEM51 (11727254_a_at) / Fold change /veh TMEM51 (11727254_a_at) / RFU PIWIL2 (11732686_x_at) / Fold change /veh PIWIL2 (11732686_x_at) / RFU ORM1 (11744905_x_at) / Fold change /veh ORM1 (11744905_x_at) / RFU CCDC152 (11743942_at) / Fold change /veh CCDC152 (11743942_at) / RFU ECM1 (11717891_a_at) / Fold change /veh ECM1 (11717891_a_at) / RFU IL23R (11748794_a_at) / Fold change /veh IL23R (11748794_a_at) / RFU TNFAIP8L3 (11732012_x_at) / Fold change /veh TNFAIP8L3 (11732012_x_at) / RFU MBOAT4 (11741988_at) / Fold change /veh MBOAT4 (11741988_at) / RFU 11764193_at / Fold change /veh 11764193_at / RFU TMEM53 (11763286_at) / Fold change /veh TMEM53 (11763286_at) / RFU MAGEB2 (11727129_at) / Fold change /veh MAGEB2 (11727129_at) / RFU TMEM200A (11744735_a_at) / Fold change /veh TMEM200A (11744735_a_at) / RFU CCDC152 (11751479_a_at) / Fold change /veh CCDC152 (11751479_a_at) / RFU FAM211A (11726209_a_at) / Fold change /veh FAM211A (11726209_a_at) / RFU RGS16 (11746705_a_at) / Fold change /veh RGS16 (11746705_a_at) / RFU VCAN (11755009_s_at) / Fold change /veh VCAN (11755009_s_at) / RFU RHOB (11743442_s_at) / Fold change /veh RHOB (11743442_s_at) / RFU RGS16 (11720943_a_at) / Fold change /veh RGS16 (11720943_a_at) / RFU RGS16 (11720944_at) / Fold change /veh RGS16 (11720944_at) / RFU, VPS4B / Fold change vs veh, VPS4B / RFU, CREB1 / Fold change vs veh, CREB1 / RFU, DNAJC13 / Fold change vs veh, DNAJC13 / RFU, GNAQ / Fold change vs veh, GNAQ / RFU, CDK5R1 / Fold change vs veh, CDK5R1 / RFU, ZRANB3 / Fold change vs veh, ZRANB3 / RFU, CUL4A / Fold change vs veh, CUL4A / RFU, CCNY / Fold change vs veh, CCNY / RFU, UFL1 / Fold change vs veh, UFL1 / RFU, COG3 / Fold change vs veh, COG3 / RFU, DIAPH2 / Fold change vs veh, DIAPH2 / RFU, SKA2 / Fold change vs veh, SKA2 / RFU, AFF3 / Fold change vs veh, AFF3 / RFU, LMF1 / Fold change vs veh, LMF1 / RFU, IPO11 / Fold change vs veh, IPO11 / RFU, DFFB / Fold change vs veh, DFFB / RFU, FOXP1 / Fold change vs veh, FOXP1 / RFU, CARD8 / Fold change vs veh, CARD8 / RFU, STRN3 / Fold change vs veh, STRN3 / RFU, ADK / Fold change vs veh, ADK / RFU, RASSF2 / Fold change vs veh, RASSF2 / RFU, WIPF1 / Fold change vs veh, WIPF1 / RFU, LARP1B / Fold change vs veh, LARP1B / RFU, RASA1 / Fold change vs veh, RASA1 / RFU, RB1 / Fold change vs veh, RB1 / RFU, PPFIA1 / Fold change vs veh, PPFIA1 / RFU, MAT2A / Fold change vs veh, MAT2A / RFU, CCT5 / Fold change vs veh, CCT5 / RFU, WDR92 / Fold change vs veh, WDR92 / RFU, CUX1 / Fold change vs veh, CUX1 / RFU, TTC7A / Fold change vs veh, TTC7A / RFU, TMEM135 / Fold change vs veh, TMEM135 / RFU, DEPTOR / Fold change vs veh, DEPTOR / RFU, CPM / Fold change vs veh, CPM / RFU, DNAJB6 / Fold change vs veh, DNAJB6 / RFU, CACNA2D3 / Fold change vs veh, CACNA2D3 / RFU, DTX4 / Fold change vs veh, DTX4 / RFU, TFCP2 / Fold change vs veh, TFCP2 / RFU, GMCL1 /// GMCL1P1 / Fold change vs veh, GMCL1 /// GMCL1P1 / RFU, AEBP2 / Fold change vs veh, AEBP2 / RFU, SNHG1 /// SNORD22 /// SNORD25 /// SNORD26 /// SNORD27 /// SNORD28 /// SNORD29 /// SNORD31 / Fold change vs veh, SNHG1 /// SNORD22 /// SNORD25 /// SNORD26 /// SNORD27 /// SNORD28 /// SNORD29 /// SNORD31 / Fold change (Aza/veh), C12orf56 (ProbeSet 11735607_a_at) / Fold change (ACY-1035/veh), C12orf56 (ProbeSet 11735607_a_at) / Fold change (Aza/veh), FGFR1OP (ProbeSet 11751329_s_at) / Fold change (ACY-1035/veh), FGFR1OP (ProbeSet 11751329_s_at) / Fold change (Aza/veh), VPS36 (ProbeSet 11739960_a_at) / Fold change (ACY-1035/veh), VPS36 (ProbeSet 11739960_a_at) / RFU SYPL1 (11715823_x_at) / Fold change /veh SYPL1 (11715823_x_at) / RFU IGFBP7 (11715501_s_at) / Fold change /veh IGFBP7 (11715501_s_at) / RFU REEP3 (11722064_at) / Fold change /veh REEP3 (11722064_at) / RFU IGLL1 (11728026_x_at) / Fold change /veh IGLL1 (11728026_x_at): dose or concentration left out as unconfirmed
Settings: ProbeSet 11734937_a_at; LIST B

Question: For `Nc1ncn([C@@H]2O[C@H](CO)[C@@H](O)[C@H]2O)c(=O)n1` [azacitidine], which “Fold change vs veh, CNOT2” value is on record?
Answer: 0.93

— paper PMC5218480 (PLoS ONE, 2017)
